Test results from PubChem BioAssay AID330 (DTP/NCI, 2004).
Where “and” joins values, the source holds several entries; their conditions need not be identical. Equal entries are not always repeated. Toxic doses and inconclusive results are not listed. The calls were made as follows: active = survival T/C of 150% or more; inactive = T/C below 125% in these data.

System: P388 leukemia ip, CD2F1 mice, survival T/C
Experiment: NCI In Vivo Anticancer Drug Screen. Data for tumor model P388 Leukemia (intraperitoneal) in CD2F1 (CDF1) mice
Details: endpoint: median survival time, higher = longer survival
How it was run: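 Mice carrying the transplanted tumor received test compound or vehicle. Survival was recorded in each group, and the value is the treated-group measurement divided by that of the vehicle-treated control group.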

[1] = dose: 100.0 mg/kg/injection, schedule: Q01DX009 (ip), vehicle: saline with Tween-80
[2] = dose: 200.0 mg/kg/injection, schedule: Q01DX009 (ip), vehicle: saline with Tween-80
[3] = dose: 50.0 mg/kg/injection, schedule: Q01DX005 (ip), vehicle: saline with Tween-80
[4] = dose: 100.0 mg/kg/injection, schedule: Q01DX005 (ip), vehicle: saline with Tween-80
[5] = dose: 200.0 mg/kg/injection, schedule: Q01DX005 (ip), vehicle: saline with Tween-80

Measured: T/C

O=C1CC(c2ccc(Cl)cc2)C(c2ccc(Cl)cc2)C1C(=O)OC1CCCCC1 (stereo not drawn)
inactive: dose: 1.56 mg/kg/injection, schedule: Q01DX001 (ip), vehicle: Klucel (hydroxypropylcellulose) (HPC) 110 % of control | dose: 3.13 mg/kg/injection, schedule: Q01DX001 (ip), vehicle: Klucel (hydroxypropylcellulose) (HPC) 107 % of control | dose: 6.25 mg/kg/injection, schedule: Q01DX001 (ip), vehicle: Klucel (hydroxypropylcellulose) (HPC) 107 % of control and 89 % of control

COC(=O)C1CCC2c3ccccc3C(C1)c1ccccc12 (stereo not drawn)
inactive: [1] 90 % of control | dose: 100.0 mg/kg/injection, schedule: Q04DX003 (ip), vehicle: saline with Tween-80 90 % of control | [2] 118 % of control | dose: 200.0 mg/kg/injection, schedule: Q04DX003 (ip), vehicle: saline with Tween-80 100 % of control | dose: 400.0 mg/kg/injection, schedule: Q01DX009 (ip), vehicle: saline with Tween-80 118 % of control | dose: 400.0 mg/kg/injection, schedule: Q04DX003 (ip), vehicle: saline with Tween-80 100 % of control

S=C1CCNCC1
inactive: dose: 3.13 mg/kg/injection, schedule: Q04DX003 (ip), vehicle: saline 100 % of control | dose: 6.25 mg/kg/injection, schedule: Q04DX003 (ip), vehicle: saline 104 % of control | dose: 12.5 mg/kg/injection, schedule: Q04DX003 (ip), vehicle: saline 100 % of control | dose: 25.0 mg/kg/injection, schedule: Q04DX003 (ip), vehicle: saline 100 % of control | dose: 50.0 mg/kg/injection, schedule: Q04DX003 (ip), vehicle: saline 90 % of control

CC/C(=N\NC(=S)SC)c1ccccn1
inactive: dose: 6.25 mg/kg/injection, schedule: Q01DX005 (ip), vehicle: saline with Tween-80 106 % of control | dose: 12.5 mg/kg/injection, schedule: Q01DX005 (ip), vehicle: saline with Tween-80 94 % of control and 96 % of control and 97 % of control | dose: 25.0 mg/kg/injection, schedule: Q01DX005 (ip), vehicle: saline with Tween-80 105 % of control and 110 % of control and 94 % of control

COc1cc(C(O)CCBr)c(OC)cc1C (stereo not drawn)
inactive: dose: 60.0 mg/kg/injection, schedule: Q01DX005 (ip), vehicle: saline with Tween-80 100 % of control | dose: 120.0 mg/kg/injection, schedule: Q01DX005 (ip), vehicle: saline with Tween-80 100 % of control | dose: 240.0 mg/kg/injection, schedule: Q01DX005 (ip), vehicle: saline with Tween-80 95 % of control

Cc1c(Br)sc2c1ccc1ccccc12
inactive: dose: 50.0 mg/kg/injection, schedule: Q01DX009 (ip), vehicle: saline with Tween-80 101 % of control | [1] 100 % of control | [2] 109 % of control

CC(C)=CCCC(C)(OC1OC(COC2OCC(O)C(O)C2O)C(O)C(O)C1O)C1CCC2(C)C1C(O)CC1C3(C)CCC(OC4OC(CO)C(O)C(O)C4OC4OC(CO)C(O)C(O)C4O)C(C)(C)C3CCC12C (stereo not drawn)
inactive: dose: 18.75 mg/kg/injection, schedule: Q01DX009 (ip), vehicle: Klucel (hydroxypropylcellulose) (HPC) 98 % of control | dose: 37.5 mg/kg/injection, schedule: Q01DX009 (ip), vehicle: Klucel (hydroxypropylcellulose) (HPC) 100 % of control | dose: 75.0 mg/kg/injection, schedule: Q01DX009 (ip), vehicle: Klucel (hydroxypropylcellulose) (HPC) 92 % of control | dose: 150.0 mg/kg/injection, schedule: Q01DX009 (ip), vehicle: Klucel (hydroxypropylcellulose) (HPC) 92 % of control

O=c1[nH]cnc2cc3cn[nH]c3cc12
inactive: [3] 91 % of control | [4] 96 % of control | [5] 95 % of control

CCCOC(=O)C1C2CCC(O2)C1C(=O)O (stereo not drawn)
inactive: dose: 6.25 mg/kg/injection, schedule: Q01DX005 (ip), vehicle: saline 106 % of control | dose: 12.5 mg/kg/injection, schedule: Q01DX005 (ip), vehicle: saline 103 % of control

O=c1nc2n(CC(O)C(O)C(O)C(O)CO)c3ccc(Cl)cc3nc-2c(=O)[nH]1 (stereo not drawn)
inactive: dose: 50.0 mg/kg/injection, schedule: Q01DX005 (ip), vehicle: saline 104 % of control | dose: 100.0 mg/kg/injection, schedule: Q01DX005 (ip), vehicle: saline 104 % of control | dose: 200.0 mg/kg/injection, schedule: Q01DX005 (ip), vehicle: saline 104 % of control

Cc1ccccc1NC(=O)C(=O)C(C#N)c1ccc(Cl)cc1Cl (stereo not drawn)
inactive: [3] 100 % of control | [4] 100 % of control | [5] 98 % of control
